In patent publication US8629293B2, “Process for the preparation of FE(III) chelates of N,N′-DI(2-hydroxybenzyl)-ethylenediamine-N,N′-diacetic acid and its derivatives” (Przedsiebiorstwo Produkcyjno-Consultingowe Adob SP. Z O.O. …, priority 2009, dated 2014):

What was measured:
Type in all cases: in vivo
[1] = system: 7-year old trees of flat peach (Prunus persica var. platycarpa) grafted on the GF677 root stock with visible symptoms of chlorosis; assay: Field test, testing field No. 2: SPAD index of leaves; details: for ΔSPAD index of leaves: 0.9 g of the chelated Fe/tree
Method: (§1) The comparison included two chelate agents for supplementing iron deficiencies: HBED/Fe^3+ as well as the commercially available, highly purified EDDHA/Fe^3+. The studies were carried out on two fields with the soil having an alkaline pH as well as a high concentration of calcium ions. The chelates were applied directly to the soil by means of a dripper immersed in the soil.
7-year old trees of flat peach (Prunus persica var. platycarpa) grafted on the GF677 root stock with visible symptoms of chlorosis
The chelates were applied at the following concentrations: • EDDHA/Fe^3+: high concentration (0.9 g of the chelated Fe/tree) • HBED/Fe^3+: high concentration (0.9 g of the chelated Fe/tree) • control trial: without Fe
The chelate solutions were dosed directly to the ground below the dripper. In this case, the whole dose of the chelates were applied in one portion. The symptoms of chlorosis were visible at the beginning of the experiment.
The samples for determination of the SPAD index of leaves were taken approximately every two weeks (on day 0, 20, 40 and 63 after application of the chelates).

[2] = system: 10-year old nectarine trees, cultivar "Zephyr" grafted on the GF677 root stock; assay: Field test, testing field No. 1: SPAD index
Method: as §1
10-year old nectarine trees, cultivar “Zephyr” grafted on the GF677 root stock
The chelates were applied at the following concentrations: • EDDHA/Fe^3+: high concentration (0.9 g of the chelated Fe/tree) • HBED/Fe^3+: low concentration (0.45 g of the chelated Fe/tree) • HBED/Fe^3+: high concentration (0.9 g of the chelated Fe/tree) • control trial: without Fe
The chelate solutions of various concentrations were applied in three portions (50%, 30%, and finally 20% of the whole dose, respectively) directly to the ground below the dripper.
The SPAD index was measured approximately every two weeks: on day 14, 29, 44, 61, 88 and 99 after application of the chelates.

[3] = system: soybean (Glycine max L.) var. Stine 0480; assay: Fertilising of soya in plant growth climatic chamber: SPAD index (leaves greenness); details: for The SPAD index, 2nd level of foliage / The SPAD index, 3rd level of foliage: end of experiment
Method: (§2) The experiment was performed using the seeds of soybean (Glycine max L.) var. Stine 0480. A standard seed germination procedure was followed. Before starting the experiment, the seeds were thoroughly washed with water (30 minutes). The clean seeds were placed between two sheets of a cellulose paper soaked with water. The seeds germinated over two days in a climatic chamber at a temperature of 30° C. and a humidity of 60%, without access of light. After that time, the seedlings at a similar stage of development were placed on perforated trays floating over containers containing 10 L of the diluted nutrient solution for four days, followed by next three days using a solution containing micronutrients but without iron. Composition of the nutrient solution was: 1 mM Ca(NO3)2, 0.90 mM KNO3, 0.30 mM MgSO4, 0.10 mM KH2PO4, 2.5 μM MnSO4, 1.0 μM CuSO4, 10 μM ZnSO4, 1.0 μM NiCl2, 1.0 μM CoSO4, 115.5 μM Na2EDTA, 231 μM KOH, 35 μM NaCl, 10 μM H3BO3, 0.05 μM Na2MoO4 and 0.1 mM of N-(2-hydroxyethyl)piperazine-N′-(2-ethanesulfonic acid) sodium salt (HEPES). The pH value was adjusted to 7.5 using 1M KOH. 1-litre pots were filled with soil and sand in a volume ratio of 2:1. The test plants were transplanted into the thus-prepared pots, 3 plants per each pot. The experiment was carried out with adhering to the daily cycle of plant growth: 16 h of day time (30° C., 50% humidity) and 8 h of night time (25° C., 70% humidity).
(§3) Seven days after transplanting the plants into the pots, the symptoms of chlorosis were observed. The further part of the experiment was aimed at comparison of the effectiveness of performance of FeHBED with that of the commercially available FeEDDHA. For this purpose, the solutions of FeHBED and FeEDDHA were prepared, in which the iron isotope ^57Fe was used. The concentrations of ^57Fe in the doses were 0, 1.7, 3.4, 8.4, 16.8, 25.1 and 41.9 μmol of ^57Fe/kg of soil. Each dose was applied in duplicate. Additionally, a blank test (without iron) was performed for three pots.
The SPAD index (a measure of leaves greenness) was determined every two days during the whole experiment.

[4] = system: soybean (Glycine max L.) var. Stine 0480; assay: Fertilising of soya in plant growth climatic chamber: plant dry matter
Method: as §2, §3
Table 1 summarises the results of dry matter of above-ground sprouts (leaves and stems) for the plants gathered after every application of iron solutions of various concentration for two samplings.

[5] = 0.45 g of the chelated Fe/tree, day 14 after application
[6] = 0.45 g of the chelated Fe/tree, day 29 after application
[7] = 0.45 g of the chelated Fe/tree, day 44 after application
[8] = 0.45 g of the chelated Fe/tree, day 61 after application
[9] = 0.45 g of the chelated Fe/tree, day 88 after application
[10] = 0.45 g of the chelated Fe/tree, day 99 after application
[11] = 0.9 g of the chelated Fe/tree, day 14 after application
[12] = 0.9 g of the chelated Fe/tree, day 29 after application
[13] = 0.9 g of the chelated Fe/tree, day 44 after application
[14] = 0.9 g of the chelated Fe/tree, day 61 after application
[15] = 0.9 g of the chelated Fe/tree, day 88 after application
[16] = 0.9 g of the chelated Fe/tree, day 99 after application

Question: Which results are given for `O=C([O-])CN(CCN(CC(=O)[O-])Cc1ccccc1[O-])Cc1ccccc1[O-].[Fe+3].[Na+]` [HBED/Fe^3+]?
Answer: ΔSPAD index of leaves ([1]; day 0 after application): 0; ΔSPAD index of leaves ([1]; day 20 after application): 11.50; ΔSPAD index of leaves ([1]; day 40 after application): 16.75; ΔSPAD index of leaves ([1]; day 63 after application): 16.23; ΔSPAD index compared with EDDHA/Fe3+ ([1]; Table 5): does not show any significant differences; Use against iron deficiencies ([1]; soils of alkaline pH and high concentration of calcium ions): may be successfully used against iron deficiencies; The SPAD index of the fructifying branches [2, 5]: 36.46; The SPAD index of the non-fructifying branches [2, 5]: 34.39; The SPAD index of the fructifying branches [2, 6]: 37.82; The SPAD index of the non-fructifying branches [2, 6]: 36.46; The SPAD index of the fructifying branches [2, 7]: 37.09; The SPAD index of the non-fructifying branches [2, 7]: 34.46; The SPAD index of the fructifying branches [2, 8]: 36.54; The SPAD index of the non-fructifying branches [2, 8]: 34.69; The SPAD index of the fructifying branches [2, 9]: 38.64; The SPAD index of the non-fructifying branches [2, 9]: 37.46; The SPAD index of the fructifying branches [2, 10]: 37.36; The SPAD index of the non-fructifying branches [2, 10]: 36.54; The SPAD index of the fructifying branches [2, 11]: 35.45; The SPAD index of the non-fructifying branches [2, 11]: 35.69; The SPAD index of the fructifying branches [2, 12]: 37.91; The SPAD index of the non-fructifying branches [2, 12]: 35.77; The SPAD index of the fructifying branches [2, 13]: 37.27; The SPAD index of the non-fructifying branches [2, 13]: 36.54; The SPAD index of the fructifying branches [2, 14]: 37.64; The SPAD index of the non-fructifying branches [2, 14]: 33.69; The SPAD index of the fructifying branches [2, 15]: 39.73; The SPAD index of the non-fructifying branches [2, 15]: 39.00; The SPAD index of the fructifying branches [2, 16]: 37.27; The SPAD index of the non-fructifying branches [2, 16]: 37.46; SPAD index values compared with EDDHA/Fe3+ ([2]; fructifying and non-fructifying branches, Tables 3 and 4): comparable; Effect on symptoms of chlorosis ([2]; testing field No. 1): effectively reduces the symptoms of chlorosis

Question: What does the source list for `O=C(O)CN(CCN(CC(=O)O)Cc1ccccc1O)Cc1ccccc1O` [HBED]?
Answer: SPAD index compared with o,oEDDHA/57Fe3+ ([3]; both levels of foliage): No significant differences in the values of the SPAD index; The SPAD index, 2nd level of foliage ([3]; 1.7 μmol of 57Fe/kg of soil): 29.58; The SPAD index, 3rd level of foliage ([3]; 1.7 μmol of 57Fe/kg of soil): 34.09; The SPAD index, 2nd level of foliage ([3]; 3.4 μmol of 57Fe/kg of soil): 28.75; The SPAD index, 3rd level of foliage ([3]; 3.4 μmol of 57Fe/kg of soil): 35.91; The SPAD index, 2nd level of foliage ([3]; 8.4 μmol of 57Fe/kg of soil): 42.50; The SPAD index, 3rd level of foliage ([3]; 8.4 μmol of 57Fe/kg of soil): 43.18; The SPAD index, 2nd level of foliage ([3]; 16.8 μmol of 57Fe/kg of soil): 27.92; The SPAD index, 3rd level of foliage ([3]; 16.8 μmol of 57Fe/kg of soil): 37.73; The SPAD index, 2nd level of foliage ([3]; 25.1 μmol of 57Fe/kg of soil): 27.92; The SPAD index, 3rd level of foliage ([3]; 25.1 μmol of 57Fe/kg of soil): 37.73; The SPAD index, 2nd level of foliage ([3]; 41.9 μmol of 57Fe/kg of soil): 29.17; The SPAD index, 3rd level of foliage ([3]; 41.9 μmol of 57Fe/kg of soil): 43.64; Sprout dry weights compared with o,oEDDHA/57Fe3+ ([4]; conclusion from Table 1, all doses): no evident difference in the sprout dry weights; Root dry weight ([4]; dose 1.7 μmol 57Fe/kg of soil): 0.33 g/3 plants; Sprout dry weight, 1 sampling ([4]; dose 1.7 μmol 57Fe/kg of soil): 0.73 g/plant; Sprout dry weight, 2 sampling ([4]; dose 1.7 μmol 57Fe/kg of soil): 2.20 g/plant; Root dry weight ([4]; dose 3.4 μmol 57Fe/kg of soil): 0.53 g/3 plants; Sprout dry weight, 1 sampling ([4]; dose 3.4 μmol 57Fe/kg of soil): 0.79 g/plant; Sprout dry weight, 2 sampling ([4]; dose 3.4 μmol 57Fe/kg of soil): 2.83 g/plant; Root dry weight ([4]; dose 8.4 μmol 57Fe/kg of soil): 0.56 g/3 plants; Sprout dry weight, 1 sampling ([4]; dose 8.4 μmol 57Fe/kg of soil): 0.91 g/plant; Sprout dry weight, 2 sampling ([4]; dose 8.4 μmol 57Fe/kg of soil): 2.62 g/plant; Root dry weight ([4]; dose 16.8 μmol 57Fe/kg of soil): 0.51 g/3 plants; Sprout dry weight, 1 sampling ([4]; dose 16.8 μmol 57Fe/kg of soil): 0.72 g/plant; Sprout dry weight, 2 sampling ([4]; dose 16.8 μmol 57Fe/kg of soil): 3.19 g/plant; Root dry weight ([4]; dose 25.1 μmol 57Fe/kg of soil): 0.43 g/3 plants; Sprout dry weight, 1 sampling ([4]; dose 25.1 μmol 57Fe/kg of soil): 0.92 g/plant; Sprout dry weight, 2 sampling ([4]; dose 25.1 μmol 57Fe/kg of soil): 2.66 g/plant; Root dry weight ([4]; dose 41.9 μmol 57Fe/kg of soil): 0.49 g/3 plants; Sprout dry weight, 1 sampling ([4]; dose 41.9 μmol 57Fe/kg of soil): 0.79 g/plant; Sprout dry weight, 2 sampling ([4]; dose 41.9 μmol 57Fe/kg of soil): 2.63 g/plant
